Experimental data from US20250129051A1, “PARP1 INHIBITORS AND USES THEREOF” (Gilead Sciences, Inc., priority 2023, published 2025).

Legend:
Format in all cases: cell-based
[1] = tested on: DLD-1 BRCA2 (−/−) cells; assay: Cell growth inhibition assay (CellTiter-Glo), DLD-1 BRCA2 (−/−); conditions: Homo sapiens, 168 h, 7 days, CellTiter Glo 2.0
Description: (§1) The objective of this study was to evaluate the effect of a compound disclosed herein on cell proliferation through the cell viability assay in DLD-1 BRCA2 (−/−) and parental isogenic pair and MDA-MB-436 (mutated BRCA1) cell lines. The CellTiter-Glo (CTG) based cell viability assay was designed to determine the number of viable cells in the culture because of compound effect, by quantifying adenosine triphosphate (ATP), which indicates the presence of metabolically active cells.
(§2) DLD-1 BRCA2 (−/−) and parental isogenic pair were cultured in RPMI 1640 supplemented with 10% fetal bovine serum (FBS), and MDA-MB-436 cells were cultured in Dulbecco's Modified Eagle Medium (DMEM) supplemented with 10% FBS. Both were cultured at 37° C. with 5% CO2. Compounds were distributed to the 384 well plate (Corning, 3764) using Echo acoustic liquid handler to form a 1:3 serially diluted final concentration with top dose of 10 or 30 μM. The cells were seeded into the plate in the density of 50 cells/well (DLD-1 parental), 200 cells/well (DLD-1 BRCA2−/−), or 500 cells/well (MDA-MB-436). After a short spin, the cells were cultured in a well moisturized incubator at 37° C. with 5% CO2 for 7 days without disturbance. The cell viability was measured by CellTiter Glo 2.0 assay kit (Promega, G9243), and growth inhibition rate was calculated and plotted against final compound concentration, and the data were fitted in Xfit to generate IC50.

[2] = tested on: MDA-MB-436 (mutated BRCA1) cells; assay: Cell growth inhibition assay (CellTiter-Glo), MDA-MB-436; conditions: Homo sapiens, 168 h; MDA-MB-436 cells, 7 days, CellTiter Glo 2.0
Description: as §1, §2

[3] = tested on: DLD-1 parental cells; assay: Cell growth inhibition assay (CellTiter-Glo), DLD-1 parental; conditions: Homo sapiens, 168 h, 7 days, CellTiter Glo 2.0
Description: as §1, §2

IC50 [1]	IC50 [2]	SMILES	IC50 [3]
67 nM	23 nM	CNC(=O)c1ccc(O[C@H]2CN(Cc3ccc4nc(C)c(=O)[nH]c4c3F)[C@@H]2C)c(F)n1 [Compound 5, 6-fluoro-5-(((2R,3S)-1-((5-fluoro-2-methyl-3-oxo-3,4-dihydroquinoxalin-6-yl)methyl)-2-methylazetidin-3-yl)oxy)-N-methylpicolinamide]	> 10 µM
28 nM	8.9 nM	Cc1nc2ccc(CN3C[C@H](Oc4ccc(C(=O)NC5CC5)nc4F)[C@H]3C)c(F)c2[nH]c1=O [Compound 6, N-cyclopropyl-6-fluoro-5-(((2R,3S)-1-((5-fluoro-2-methyl-3-oxo-3,4-dihydroquinoxalin-6-yl)methyl)-2-methylazetidin-3-yl)oxy) picolinamide]	> 10 µM
> 1000 nM	> 1000 nM	Cc1nc2ccc(CN3C[C@H](Oc4ccc(C#N)nc4F)[C@H]3C)c(F)c2[nH]c1=O [Compound 7, 6-fluoro-5-(((2R,3S)-1-((5-fluoro-2-methyl-3-oxo-3,4-dihydroquinoxalin-6-yl)methyl)-2-methylazetidin-3-yl)oxy) picolinonitrile]	> 10 µM
